Experimental data: patent publication US6849728B1, “GLUT10: a glucose transporter in the type 2 diabetes linked region of chromosome 20Q12-13.1” (Wake Forest University Health Sciences, priority 2000, dated 2005)
“Also recorded” adds a separate entry of the source.

Legend:
[1] = molecular target: T1, human GLUT10 (Homo sapiens, UniProt O95528); assay: 2-DOG uptake in Xenopus oocytes injected with GLUT10 RNA; assay type: cell-based; conditions: for effect of competitors on [3H]2-DOG uptake: 100-fold excess: 25 mM competitor
T1 construct: A full-length GLUT10 cDNA was cloned into the expression vector pCMV-Tag4a (Stratagene); expressed in transfected cells; host or cells: Xenopus laevis oocytes injected with capped mRNA
T1 sequence (O95528 1-541): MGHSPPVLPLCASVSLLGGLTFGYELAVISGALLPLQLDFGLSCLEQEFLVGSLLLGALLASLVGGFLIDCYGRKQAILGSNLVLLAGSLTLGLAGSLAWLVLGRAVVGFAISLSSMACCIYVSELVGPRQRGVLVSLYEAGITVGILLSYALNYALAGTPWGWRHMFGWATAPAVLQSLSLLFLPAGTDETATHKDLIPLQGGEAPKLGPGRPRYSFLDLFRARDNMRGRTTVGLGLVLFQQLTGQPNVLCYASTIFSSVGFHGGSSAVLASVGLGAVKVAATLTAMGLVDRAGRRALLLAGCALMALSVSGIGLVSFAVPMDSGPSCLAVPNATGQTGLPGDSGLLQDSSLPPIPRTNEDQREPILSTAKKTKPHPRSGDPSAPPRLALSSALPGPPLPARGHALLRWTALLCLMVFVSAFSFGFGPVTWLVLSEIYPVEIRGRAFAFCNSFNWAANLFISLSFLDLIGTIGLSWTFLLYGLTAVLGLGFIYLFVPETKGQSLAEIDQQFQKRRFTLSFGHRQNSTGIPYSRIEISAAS
Text: (§1) Material and Methods. A full-length GLUT10 cDNA was cloned into the expression vector pCMV-Tag4a (Stratagene). A PCR-based strategy employing Pfu polymerase was used for site-directed mutagenesis to generate the GLUT10 single nucleotide polymorpisms. The PCR products were digested with Eco RI, subcloned into pCMV-Tag4a, and the complete insert was sequenced to confirm the identity of the A206T and A287T GLUT10 glucose transporter cDNAs. The pcDNA3.1/GS plasmids expressing the full-length GLUT3 and GLUT4 cDNA were purchased from Invitrogen Corporation. Capped mRNA was generated using the mMESSAGE mMACHINE™ transcription kit (Ambion Inc).
Adult female Xenopus laevis were obtained from Xenopus Express (Homosassa, Fla.) and housed at 17-19° C. on a twelve-hour light/dark cycle. Stage V-VI oocytes were removed from anesthetized frogs and placed in isolation media (108 mM NaCl, 1 mM EDTA, 2 mM KCl, 10 mM HEPES, pH 7.5). The oocyte follicular layer was removed by immersion in 0.5 mg/ml collagenase buffer (83 mM NaCl, 2 mM KCl, 1 mM MgCl2, and 5 mM HEPES, pH 7.5). Isolated oocytes were maintained in modified Barth's saline (MBS; 88 mM NaCl, 1 mM KCl, 10 mM HEPES, 0.82 mM MgSO4, 2.4 mM NaHCO3, 0.91 mM CaCl2, and 0.33 mM Ca(NO3)2, pH 7.5). Visually healthy oocytes were injected with 30 nl of either a mRNA solution (1.0 μg/μl) or sterile water at the interface between the animal and vegetal poles. Individual oocytes were placed in 96-well microtiter plates (Costar Corporation) containing MBS plus 2 mM sodium pyruvate, 0.5 mM theophylline, 10 U/ml penicillin, 10 mg/l streptomycin and 50 mg/] gentamycin (Sigma) at 22° C.
(§2) DOG (final specific activity=0.5 Ci/mmol) (NEN Life Science Products, Inc.; American Radiochemical Company). Competitors, inhibitors, or insulin were added to the incubation as indicated. Uptake was terminated by removal of the radioactive solution and three 500 μl washes with ice-cold MBS containing 0.1 mM phloretin (Sigma). Pools of oocytes were dissolved in 10% SDS, mixed with scintillation fluid, and internalized radioactivity was measured by scintillation spectrometry using a Beckman LS-600 scintillation counter. Data are expressed as the arithmetic mean or median of duplicate or triplicate pools of 4 to 12 oocytes at each data point. Transport kinetics were analyzed by best-fit analysis of data points (Cricket Graph, Computer Associates) and Eadie-Hofstee transformation.

[2] = molecular target: T2, human GLUT4 (Homo sapiens, UniProt P14672); assay: 2-DOG uptake in Xenopus oocytes injected with GLUT4 RNA; assay type: cell-based; conditions: pre-incubation with 100 μM insulin for 30 min, 250 μM [3H]2-DOG
T2 construct: The pcDNA3.1/GS plasmids expressing the full-length GLUT3 and GLUT4 cDNA were purchased from Invitrogen Corporation; host or cells: Xenopus laevis oocytes injected with capped mRNA
T2 sequence (P14672 1-509): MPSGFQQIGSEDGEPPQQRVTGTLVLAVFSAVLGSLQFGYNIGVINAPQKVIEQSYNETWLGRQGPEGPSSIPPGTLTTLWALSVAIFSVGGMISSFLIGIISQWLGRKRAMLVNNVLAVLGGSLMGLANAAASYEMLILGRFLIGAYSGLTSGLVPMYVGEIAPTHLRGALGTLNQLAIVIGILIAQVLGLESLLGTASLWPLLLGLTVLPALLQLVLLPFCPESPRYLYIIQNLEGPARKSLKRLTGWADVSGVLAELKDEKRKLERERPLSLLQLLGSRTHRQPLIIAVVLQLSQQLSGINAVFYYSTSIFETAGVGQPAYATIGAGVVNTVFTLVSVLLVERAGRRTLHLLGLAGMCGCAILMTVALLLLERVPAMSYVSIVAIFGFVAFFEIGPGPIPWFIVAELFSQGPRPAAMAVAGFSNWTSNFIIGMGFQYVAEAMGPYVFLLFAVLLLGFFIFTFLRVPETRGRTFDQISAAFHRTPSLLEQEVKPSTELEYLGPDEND
Text: as §1
(§3) Adult female Xenopus laevis were obtained from Xenopus Express (Homosassa, Fla.) and housed at 17-19° C. on a twelve-hour light/dark cycle. […]
as §2, with “Competitors, inhibitors, or insulin were added to the incubation as indicated. Uptake was terminated by removal of the radioactive solution and three 500 μl washes with ice-cold MBS containing 0.1 mM phloretin (Sigma).” left out

[3] = molecular target: T3, GLUT10 A28T (Homo sapiens, UniProt O95528, A287T); assay: 2-DOG uptake in Xenopus oocytes expressing GLUT10 A28T isoform; assay type: cell-based; conditions: pre-incubation with insulin
T3 construct: A full-length GLUT10 cDNA was cloned into the expression vector pCMV-Tag4a (Stratagene); expressed in transfected cells; host or cells: Xenopus laevis oocytes injected with capped mRNA
T3 sequence (O95528 1-541 A287T): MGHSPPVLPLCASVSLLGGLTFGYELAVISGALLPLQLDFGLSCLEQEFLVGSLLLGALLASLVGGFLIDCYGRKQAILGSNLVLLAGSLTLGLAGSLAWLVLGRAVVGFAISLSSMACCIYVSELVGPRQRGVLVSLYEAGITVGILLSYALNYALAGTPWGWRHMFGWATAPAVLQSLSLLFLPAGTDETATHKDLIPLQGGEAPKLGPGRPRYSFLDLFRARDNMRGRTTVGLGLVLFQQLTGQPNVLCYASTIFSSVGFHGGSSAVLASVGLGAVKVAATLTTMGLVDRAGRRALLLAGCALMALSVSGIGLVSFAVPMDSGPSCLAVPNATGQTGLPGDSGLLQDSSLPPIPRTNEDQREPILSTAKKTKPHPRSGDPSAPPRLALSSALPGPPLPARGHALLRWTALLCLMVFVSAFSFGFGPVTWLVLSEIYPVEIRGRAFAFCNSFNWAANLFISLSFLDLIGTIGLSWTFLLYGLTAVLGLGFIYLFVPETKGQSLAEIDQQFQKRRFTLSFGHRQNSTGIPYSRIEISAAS
Text: as §1, §3
as §2, with “Competitors, inhibitors, or insulin were added to the incubation as indicated. Uptake was terminated by removal of the radioactive solution and three 500 μl washes with ice-cold MBS containing 0.1 mM phloretin (Sigma).” left out, “transformation. […]” for “transformation.”

[4] = molecular target: T4, GLUT10 A206T (Homo sapiens, UniProt O95528, A206T); assay: 2-DOG uptake in Xenopus oocytes expressing GLUT10 A206T isoform; assay type: cell-based; conditions: pre-incubation with insulin
T4 construct: A full-length GLUT10 cDNA was cloned into the expression vector pCMV-Tag4a (Stratagene); expressed in transfected cells; host or cells: Xenopus laevis oocytes injected with capped mRNA
T4 sequence (O95528 1-541 A206T): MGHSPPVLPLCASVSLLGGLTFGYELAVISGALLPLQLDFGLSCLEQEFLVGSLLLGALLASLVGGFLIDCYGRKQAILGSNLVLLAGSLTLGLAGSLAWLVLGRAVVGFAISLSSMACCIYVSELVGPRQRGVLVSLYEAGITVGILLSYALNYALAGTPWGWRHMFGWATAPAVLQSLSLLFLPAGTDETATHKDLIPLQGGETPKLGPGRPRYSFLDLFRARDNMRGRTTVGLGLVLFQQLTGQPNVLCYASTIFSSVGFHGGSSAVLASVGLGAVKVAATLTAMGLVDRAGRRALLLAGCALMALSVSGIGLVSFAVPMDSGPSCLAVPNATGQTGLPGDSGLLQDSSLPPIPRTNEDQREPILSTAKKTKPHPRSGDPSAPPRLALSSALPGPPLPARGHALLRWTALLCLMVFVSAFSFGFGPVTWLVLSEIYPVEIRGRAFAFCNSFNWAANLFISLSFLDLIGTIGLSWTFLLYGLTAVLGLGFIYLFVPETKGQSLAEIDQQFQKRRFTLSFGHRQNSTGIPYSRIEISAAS
Text: as §1, §3
as §2, with “Competitors, inhibitors, or insulin were added to the incubation as indicated. Uptake was terminated by removal of the radioactive solution and three 500 μl washes with ice-cold MBS containing 0.1 mM phloretin (Sigma).” left out, “transformation. […]” for “transformation.”

[5] = substrate: O=CC[C@@H](O)[C@H](O)[C@H](O)CO; assay: cells, lysate or membranes; conditions: Eadie-Hofstee analysis, pH 7.5
[6] = 250 μM [3H]2-DOG, 30 min at 22° C.

O=C(CO)[C@@H](O)[C@H](O)[C@H](O)CO [fructose]
effect of competitors on [3H]2-DOG uptake [1, 6]: did not inhibit

O=C(CCc1ccc(O)cc1)c1c(O)cc(O)cc1O [phloretin]
effect of phloretin on 2-DOG uptake ([1]; 100 μM phloretin, 25 μM [3H]2-DOG, 30 min at 22° C.): inhibited

O=C[C@H](O)[C@@H](O)[C@H](O)[C@H](O)CO [D-glucose]
effect of competitors on [3H]2-DOG uptake [1, 6]: effectively competed

O=C[C@H](O)[C@@H](O)[C@@H](O)[C@H](O)CO [D-galactose]
effect of competitors on [3H]2-DOG uptake [1, 6]: inhibited 2-DOG uptake but less effectively; also recorded: competed

insulin
insulin stimulation of 2-DOG transport [2]: stimulated
insulin stimulation of 2-DOG uptake activity [3]: not stimulated
insulin stimulation of glucose transport ([1]; pre-incubation with insulin, oocytes injected with GLUT10 mRNA): approximately 2 fold
insulin stimulation of 2-DOG transport ([1]; wild type GLUT10, pre-incubation with 100 μM insulin for 30 min, 250 μM [3H]2-DOG): stimulated
insulin stimulation of 2-DOG uptake activity [4]: not stimulated

O=CC[C@@H](O)[C@H](O)[C@H](O)CO [2-DOG, 2-deoxy-D-glucose]
2-DOG uptake over the water-injected controls ([1]; 25 μM 2-DOG, 30 min at 22° C., 3 days after injection of 30 ng GLUT10 RNA): 5 fold
effect of competitors on [3H]2-DOG uptake [1, 6]: effectively competed
Vmax of 2-DOG uptake ([1]; GLUT10 RNA-injected oocytes, 30 min at 22° C., Eadie-Hofstee analysis): 0.85 pmol oocyte^−1 30 min^−1
Km ([1]; read-out: apparent Km for 2-DOG transport, GLUT10 mRNA-injected oocytes, 30 min, Eadie-Hofstee analysis): ~300 µM

B1: human GLUT10 (Homo sapiens) (protein)
chain: MGHSPPVLPLCASVSLLGGLTFGYELAVISGALLPLQLDFGLSCLEQEFLVGSLLLGALLASLVGGFLIDCYGRKQAILGSNLVLLAGSLTLGLAGSLAWLVLGRAVVGFAISLSSMACCIYVSELVGPRQRGVLVSLYEAGITVGILLSYALNYALAGTPWGWRHMFGWATAPAVLQSLSLLFLPAGTDETATHKDLIPLQGGEAPKLGPGRPRYSFLDLFRARDNMRGRTTVGLGLVLFQQLTGQPNVLCYASTIFSSVGFHGGSSAVLASVGLGAVKVAATLTAMGLVDRAGRRALLLAGCALMALSVSGIGLVSFAVPMDSGPSCLAVPNATGQTGLPGDSGLLQDSSLPPIPRTNEDQREPILSTAKKTKPHPRSGDPSAPPRLALSSALPGPPLPARGHALLRWTALLCLMVFVSAFSFGFGPVTWLVLSEIYPVEIRGRAFAFCNSFNWAANLFISLSFLDLIGTIGLSWTFLLYGLTAVLGLGFIYLFVPETKGQSLAEIDQQFQKRRFTLSFGHRQNSTGIPYSRIEISAAS
Km ([5]; other: GLUT10 RNA (30 ng) injected oocytes, 30 min at 22° C., corrected for water-injected background): 280 µM
Km ([5]; other: GLUT10 mRNA-injected oocytes, 30 min, 22.0 °C): 300 µM
